Experimental data reported in patent US20030073740A1, “Methods for treatment of lupus erythematosus” (priority 2001, published 2003).
Read-outs that look alike come from different tables or passages of the source.

What was measured:
[1] = biological target: T1, GST-cGB-PDE5 fusion protein (cGMP binding sites of human PDE5A) (Homo sapiens, UniProt O76074); test: cGMP binding assay with GST-cGB-PDE5 fusion protein; details: for competition with cGMP binding to GST-cGB-PDE5 at high concentration: 100 μM compound, cGMP 2 μM
T1 construct: made in house; host or cells: E. coli BL21 (DE3)
T1 sequence (O76074 46-539 limits assumed): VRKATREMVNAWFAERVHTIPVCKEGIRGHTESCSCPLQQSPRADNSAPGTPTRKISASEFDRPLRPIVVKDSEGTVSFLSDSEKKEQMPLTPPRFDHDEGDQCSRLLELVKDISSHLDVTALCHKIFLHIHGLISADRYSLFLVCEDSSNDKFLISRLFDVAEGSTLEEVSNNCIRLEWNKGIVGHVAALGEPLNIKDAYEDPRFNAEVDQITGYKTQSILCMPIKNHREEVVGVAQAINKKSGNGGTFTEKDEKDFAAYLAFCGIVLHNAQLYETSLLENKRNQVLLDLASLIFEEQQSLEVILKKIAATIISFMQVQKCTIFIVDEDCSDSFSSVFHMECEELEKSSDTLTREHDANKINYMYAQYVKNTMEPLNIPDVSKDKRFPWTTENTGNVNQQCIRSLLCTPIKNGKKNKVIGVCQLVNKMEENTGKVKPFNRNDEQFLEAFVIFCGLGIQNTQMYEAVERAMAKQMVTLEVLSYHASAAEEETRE
Source text: RT-PCR method is used to obtain the cGB domain of PDE5 with forward and reverse primers designed from bovine PDE5A cDNA sequence (McAllister-Lucas L. M. et al, J. Biol. Chem. 268, 22863-22873, 1993) and the selection among PDE 1-10 families. 5′-3′, Inc. kits for total RNA followed by oligo (dT) column purification of mRNA are used with HT-29 cells. […] It is then cloned into pGEX-5X-3 glutathione-S-transferase (GST) fusion vector (Pharmacia Biotech )with tac promoter, and EcoR1 and XhoI cut sites. The fusion vector is then transfected into E. Coli BL21 (DE3) bacteria (Invitrogen). The transfected BL21 bacteria is grown to log phase, and then IPTG is added as an inducer. The induction is carried at 20° C. for 24 hrs. The bacteria are harvested and lysed. The soluble cell lysate is incubated with GSH conjugated Sepharose 4B (GSH-Sepharose 4B). The GST-cGB-PDE5 fusion protein can bind to the GSH-Sepharose beads, and the other proteins are washed off from beads with excessive cold PBS.
Then, the mixture is transferred to Brandel MB-24 cell harvester with GF/B as the filter membrane followed by 2 washes with 10 mL of cold 5 mM potassium buffer(pH 6.8). The membranes are then cut out and transferred to scintillation vials followed by the addition of 1 mL of H2O and 6 mL of Ready Safe™ liquid scintillation cocktail to each vial. The vials are counted on a Beckman LS 6500 scintillation counter.
The quenching by filter membrane or other debris are also calibrated.

[2] = biological target: T2, COX I (purified cyclooxygenase Type I) (Ovis aries, UniProt P05979); test: Cyclooxygenase (COX) inhibition, purified COX; assay type: biochemical, ram; details: arachidonic acid 100 μM, 2.0 min, 37° C.
T2 construct: The COX was purified from ram seminal vesicles; from tissue; host or cells: ram seminal vesicles
T2 sequence (P05979 25-600): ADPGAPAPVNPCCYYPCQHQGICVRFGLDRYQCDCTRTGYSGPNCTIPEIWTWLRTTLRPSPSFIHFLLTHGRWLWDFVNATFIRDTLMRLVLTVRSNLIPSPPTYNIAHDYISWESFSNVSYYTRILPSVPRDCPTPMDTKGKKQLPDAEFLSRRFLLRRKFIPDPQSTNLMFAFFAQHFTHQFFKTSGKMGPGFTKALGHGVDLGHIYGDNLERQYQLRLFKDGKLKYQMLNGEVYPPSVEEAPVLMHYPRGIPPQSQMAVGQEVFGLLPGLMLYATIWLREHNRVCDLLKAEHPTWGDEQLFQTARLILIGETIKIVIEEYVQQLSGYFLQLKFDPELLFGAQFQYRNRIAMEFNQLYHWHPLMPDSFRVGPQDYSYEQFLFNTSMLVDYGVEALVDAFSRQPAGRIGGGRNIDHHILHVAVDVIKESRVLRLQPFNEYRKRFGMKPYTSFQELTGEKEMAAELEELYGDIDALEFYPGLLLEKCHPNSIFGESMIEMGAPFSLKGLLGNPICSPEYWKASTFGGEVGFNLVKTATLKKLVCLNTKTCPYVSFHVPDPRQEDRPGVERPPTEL
Procedure: COX catalyzes the formation of prostaglandins and thromboxane by the oxidative metabolism of arachidonic acid. The compound of Example 1 of this invention, as well as a positive control, (sulindac sulfide) were evaluated to determine whether they inhibited purified cyclooxygenase Type I (see Table 1 below).
The compounds of this invention were evaluated for inhibitory effects on purified COX. The COX was purified from ram seminal vesicles, as described by Boopathy, R. and Balasubramanian, J., 239:371-377, 1988. COX activity was assayed as described by Evans, A. T., et al., “Actions of Cannabis Constituents on Enzymes Of Arachidonate Metabolism Anti-Inflammatory Potential,” Biochem. Pharmacol., 36:2035-2037, 1987. Briefly, purified COX was incubated with arachidonic acid (100 μM) for 2.0 min at 37° C. in the presence or absence of test compounds. The assay was terminated by the addition of TCA, and COX activity was determined by absorbance at 530 nm.

[3] = biological target: native bovine PDE5 (Bos taurus, UniProt Q28156); details: read-out: Kd of cGMP binding, native bovine PDE5; cited from earlier work
[4] = tested on: U937 cells; test: apoptosis induction of U937 cells (active caspase 3 immunofluorescence); assay type: cell-based; details: U937 cells, 24 hours
Procedure: U937 cells (from ATCC Rockville, Md.) were grown in RPMI media supplemented with 5% FCS, glutamine, antibiotic/antimycotic and sodium pyruvate. Total RNA was isolated from two U937 cultures, one treated with 5 nM TPA for 48 hours and one grown in normal media as listed above, using the Rouche High Pure RNA Isolation Kit (cat# 1 828 665) as per manufacturers protocol. cDNA was then synthesized from the total RNA using GibcoBRL SuperscriptII (Cat # 18064-022) reverse transcriptase as per manufacturers protocol. The resulting cDNA was used as a template for RT-PCR reactions using primer sets specific for PDE2 (forward: […], reverse: […]) or PDE5 (forward: […], reverse: […]). mRNA for PDE2 and 5 were both present in the untreated U937 cells. Upon treatment with TPA, the relative amounts of PDE2 mRNA increased 5 fold. Therefore, U937 cells treated with TPA and driven to differentiate into an activated macrophage like state have elevated levels of PDE2 mRNA (see FIG. 1).
The presence of PDE2 and PDE5 protein within U937 cells was confirmed by indirect immunofluorescence (IIF). U937 cells were cultured as above. Two U937 cultures, one grown in the presence of 5 nM TPA for 48 hours and one grown in normal media were processed. All cultures were collected by centrifugation (Shandon Cytospin, 2 minutes @ 600 rpm) onto poly-L lysine-coated slides and immediately fixed in fresh 3% paraformaldehyde buffered in PBS for 10 minutes. Adherent cultures were grown on coverslips and fixed as above. Cells were permeablized in 0.2% triton-100 for 2 minutes. Slides were blocked with blocking buffer (5% goat serum, 5% glycerol, 1% gelatin from cold water fish skin and 0.04% NaN3 in PBS) for 1 hour at room temperature.
Adherent cells were dislodged by treatment with trypsin EDTA for 5 minutes at 37° C. Cells were then processed for IIF as described above, except that an antibody specific for active caspase 3 was used (as per manufacturer's protocol) instead of antibodies to PDE2 or 5 (Promega Cat. #G7481). The anti-active caspase 3 antibody was diluted 1:200 in blocking buffer and processed according to the manufacturer's protocol. The resulting slides were observed under a fluorescent microscope and a digital images were obtained.
The level of apoptosis in U937 cells was quantified by scoring 500 consecutive cells for the presence of active caspase 3.
The cells were harvested and processed for IIF as described above using an antibody that specifically recognizes active caspase 3. […] Therefore, the inhibition of only PDE4 or PDE5 alone (i.e. without the inhibition of PDE2) is not sufficient to induce apoptosis in U937 cells.

Row | Structure (SMILES) | competition with cGMP in binding to the cGMP binding sites of GST-cGB-PDE5 ([1]; 3H-cGMP 2 μM) | other results
1 | CCCCOC1C2OP(=O)(O)OCC2OC1n1cnc2c(N)ncnc21 (stereo not drawn) [2′-O-butyl-cAMP] | did not compete | 
2 | CCCCOC1C2OP(=O)(O)OCC2OC1n1cnc2c(=O)[nH]c(N)nc21 (stereo not drawn) [2′-O-butyl-cGMP] | did not compete | 
3 | Nc1ncnc2c1ncn2[C@@H]1O[C@@H]2COP(=O)(O)O[C@H]2[C@H]1O [Cyclic AMP] |  | competition with cGMP in binding to the cGMP binding sites of GST-cGB-PDE5 [1]: did not compete
4 | O=c1[nH]cnc2c1ncn2[C@@H]1O[C@@H]2COP(=O)(O)O[C@H]2[C@H]1O [Cyclic IMP] |  | competition with cGMP binding to GST-cGB-PDE5 at high concentration [1]: partially compete
5 | CC1=C(CC(=O)NCc2ccccc2)c2cc(F)ccc2/C1=C\c1ccncc1 [Example 1, (Z)-5-Fluoro-2-Methyl-(4-Pyridinylidene)-3-(N-Benzyl)-Indenylacetamide] |  | inhibition at 100 µM [2]: < 25%
6 | Nc1nc2c(nc(Br)n2[C@@H]2O[C@@H]3COP(=O)(O)O[C@H]3[C@H]2O)c(=O)[nH]1 [Example 8-bromo-cGMP, 8-bromo-cGMP] |  | competition with cGMP binding to GST-cGB-PDE5 at high concentration [1]: partially compete
7 | O=C(O)C1CCN(c2nc(NCc3ccc4c(c3)OCO4)c3cc(Cl)ccc3n2)CC1 [Example E4021] | None of the PDE5 inhibitors showed any competition | 
8 | CSc1ccc(/C=C2/C(C)=C(CC(=O)O)c3cc(F)ccc32)cc1 [Sulindac sulfide, sulindac sulfide, reference compound] | None of the PDE5 inhibitors showed any competition | inhibition at 100 µM [2]: 86%
9 | Nc1ccn([C@@H]2O[C@@H]3COP(=O)(O)O[C@H]3[C@H]2O)c(=O)n1 [cCMP, cyclic CMP] | did not compete | 
10 | Nc1nc2c(ncn2[C@@H]2O[C@@H]3COP(=O)(O)O[C@H]3[C@H]2O)c(=O)[nH]1 [cGMP, cyclic 3′,5′-guanosine monophosphate] | specifically bound | Kd [3]: 1300 nM; Kd ([1]; read-out: Kd of cGMP binding to GST-cGB-PDE5 fusion protein, two cGMP binding sites): 1600 ± 200 nM
11 | O=c1ccn([C@@H]2O[C@@H]3COP(=O)(O)O[C@H]3[C@H]2O)c(=O)[nH]1 [cUMP, cyclic UMP] | did not compete | 
12 | CC1=C(CC(=O)O)c2cc(F)ccc2/C1=C\c1ccc(S(C)(=O)=O)cc1 [exisulind] | None of the PDE5 inhibitors showed any competition | 
13 | COc1ccc(C2CNC(=O)C2)cc1OC1CCCC1 (stereo not drawn) [rolipram, reference compound] |  | levels of apoptosis compared to normal background (active caspase 3) ([4]; 0.5 uM): No increase in the levels of apoptosis
14 | CCCc1nn(C)c2c(=O)[nH]c(-c3cc(S(=O)(=O)N4CCN(C)CC4)ccc3OCC)nc12 [sildenafil, reference compound] |  | levels of apoptosis compared to normal background (active caspase 3) ([4]; 0.3 nM): No increase in the levels of apoptosis
15 | CCCOc1ccccc1-c1nc2nn[nH]c2c(=O)[nH]1 [zaprinast] | None of the PDE5 inhibitors showed any competition | 
